The assay addresses T1, HCV polymerase (Hepatitis C virus genotype 1b, UniProt P26663).
T1 construct: a region encoding NS5B (591 amino acids; J Virol 1991 Mar, 65(3), 1105-13) was amplified by PCR; 6 His (N); made in house; host or cells: Escherichia coli
Put plainly: biochemical. As to conditions: read-out: HCV polymerase inhibitory activity IC50.
T1 sequence (P26663 2420-3010): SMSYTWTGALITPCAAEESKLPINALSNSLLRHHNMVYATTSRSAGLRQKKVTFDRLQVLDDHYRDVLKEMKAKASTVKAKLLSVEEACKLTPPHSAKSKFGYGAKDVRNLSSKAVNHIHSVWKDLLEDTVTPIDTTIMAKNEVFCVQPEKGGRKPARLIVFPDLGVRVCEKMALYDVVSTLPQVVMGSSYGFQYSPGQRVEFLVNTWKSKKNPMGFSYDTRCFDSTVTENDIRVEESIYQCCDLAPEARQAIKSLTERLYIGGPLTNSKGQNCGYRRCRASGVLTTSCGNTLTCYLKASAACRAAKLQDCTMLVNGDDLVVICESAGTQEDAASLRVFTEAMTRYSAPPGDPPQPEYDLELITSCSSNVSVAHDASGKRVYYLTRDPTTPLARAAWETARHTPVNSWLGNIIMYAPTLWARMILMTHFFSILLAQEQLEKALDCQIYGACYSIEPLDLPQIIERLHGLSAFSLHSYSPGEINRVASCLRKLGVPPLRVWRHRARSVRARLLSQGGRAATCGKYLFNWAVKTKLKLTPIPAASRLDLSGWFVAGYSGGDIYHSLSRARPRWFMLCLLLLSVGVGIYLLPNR
On to `O=C(O)c1ccc2c(c1)nc(-c1ccc(OCCCCCc3ccccc3)cc1)n2C1CCCCC1` [Example 98, 1-cyclohexyl-2-[4-(5-phenylpentyloxy)phenyl]benzimidazole-5-carboxylic acid], for which the half-inhibitory concentration (IC50) (commonly the concentration at which inhibition is half-maximal) is 300 nM.

For the compound `O=C(O)c1ccc2c(c1)nc(-c1cc(OCc3ccccc3)no1)n2C1CCCCC1` [Example 99, 2-(3-benzyloxy-5-isoxazolyl)-1-cyclohexylbenzimidazole-5-carboxylic acid], the IC50 was determined as 530 nM.

Take `O=C(O)c1ccc2c(c1)nc(-c1ccc(OCc3ccccc3)nc1)n2C1CCCCC1` [Example 100, 2-(2-benzyloxy-5-pyridyl)-1-cyclohexylbenzimidazole-5-carboxylic acid]: the 50% inhibitory concentration (IC50) is 780 nM.

Turning to `O=C(O)c1ccc2c(c1)nc(-c1ccc(OCCc3cccc4ccccc34)cc1)n2C1CCCCC1` [Example 103, 1-cyclohexyl-2-{4-[2-(1-naphthyl)ethoxy]phenyl}benzimidazole-5-carboxylic acid], the IC50 is 170 nM.

Consider `O=C(O)c1ccc2c(c1)nc(-c1ccc(Oc3ccccc3OCc3ccccc3)cc1)n2C1CCCCC1` [Example 104, 2-[4-(2-benzyloxyphenoxy)phenyl]-1-cyclohexylbenzimidazole-5-carboxylic acid], for which the IC50 worked out at 73 nM.

For the compound `O=C(O)c1ccc2c(c1)nc(-c1ccc(Oc3cccc(OCc4ccccc4)c3)cc1)n2C1CCCCC1` [Example 105, 2-[4-(3-benzyloxyphenoxy)phenyl]-1-cyclohexylbenzimidazole-5-carboxylic acid], the 50% inhibitory concentration (IC50) turned out to be 76 nM.

In the case of `O=C(O)c1ccc2c(c1)nc(-c1ccc(Oc3ccccc3O)cc1)n2C1CCCCC1` [Example 106, 1-cyclohexyl-2-[4-(2-hydroxyphenoxy)phenyl]benzimidazole-5-carboxylic acid], the half-maximal inhibitory concentration (IC50) was 400 nM.

For `O=C(O)c1ccc2c(c1)nc(-c1ccc(Oc3cccc(O)c3)cc1)n2C1CCCCC1` [Example 107, 1-cyclohexyl-2-[4-(3-hydroxyphenoxy)phenyl]benzimidazole-5-carboxylic acid], the IC50 stood at 110 nM.

With `COc1ccccc1Oc1ccc(-c2nc3cc(C(=O)O)ccc3n2C2CCCCC2)cc1` [Example 108, 1-cyclohexyl-2-[4-(2-methoxyphenoxy)phenyl]benzimidazole-5-carboxylic acid], the concentration for half-maximal inhibition (IC50) is 210 nM.

`COc1cccc(Oc2ccc(-c3nc4cc(C(=O)O)ccc4n3C3CCCCC3)cc2)c1` [Example 109, 1-cyclohexyl-2-[4-(3-methoxyphenoxy)phenyl]benzimidazole-5-carboxylic acid]: the half-maximal inhibitory concentration (IC50) is 110 nM.

`CCCOc1ccccc1Oc1ccc(-c2nc3cc(C(=O)O)ccc3n2C2CCCCC2)cc1` [Example 110, 1-cyclohexyl-2-[4-(2-propoxyphenoxy)phenyl]benzimidazole-5-carboxylic acid]: the 50% inhibitory concentration (IC50) was 240 nM.

Consider `CCCOc1cccc(Oc2ccc(-c3nc4cc(C(=O)O)ccc4n3C3CCCCC3)cc2)c1` [Example 111, 1-cyclohexyl-2-[4-(3-propoxyphenoxy)phenyl]benzimidazole-5-carboxylic acid], for which the IC50 stood at 140 nM.

In the case of `CC(C)=CCOc1ccccc1Oc1ccc(-c2nc3cc(C(=O)O)ccc3n2C2CCCCC2)cc1` [Example 112, 1-cyclohexyl-2-{4-[2-(3-methyl-2-butenyloxy)phenoxy]phenyl}-benzimidazole-5-carboxylic acid], the IC50 stood at 110 nM.

As to `CC(C)=CCOc1cccc(Oc2ccc(-c3nc4cc(C(=O)O)ccc4n3C3CCCCC3)cc2)c1` [Example 113, 1-cyclohexyl-2-{4-[3-(3-methyl-2-butenyloxy)phenoxy]phenyl}-benzimidazole-5-carboxylic acid], the IC50 turned out to be 71 nM.

As for `CC(C)CCOc1ccccc1Oc1ccc(-c2nc3cc(C(=O)O)ccc3n2C2CCCCC2)cc1` [Example 114, 1-cyclohexyl-2-[4-(2-isopentyloxyphenoxy)phenyl]benzimidazole-5-carboxylic acid], the concentration for half-maximal inhibition (IC50) was determined as 560 nM.

Source of the values: US20040082635A1, “Fused cyclic compounds and medicinal use thereof” (priority 2001, published 2004).
